What all share (assay type): cell-based
Assay [1] has as its system SH-SY5Y human neuroblastoma cells.
The test system is the same in assay [2]. The source holds these as a separate data set.
For assay [3] the test system is unchanged. The source holds these as a separate data set.

Consider `OO` [H2O2, hydrogen peroxide], for which, in assay [1], the “neurite retraction after hydrogen peroxide treatment” value is “neurites shorten”.
As to lysophosphatidic acid [LPA], in assay [2], the “length / collapsing of neurites with increasing doses of LPA” value is “linear retraction of the length of the neurites” and the “neurites after LPA treatment (retraction or preservation)” value was “retraction of the neurites”.
Regarding `CCCC(=O)Nc1ncnc2c1ncn2[C@@H]1O[C@@H]2COP(=O)(O)O[C@H]2[C@H]1OC(=O)CCC` [db-cAMP, dibutyril c-AMP], in assay [3], the “elongation / length of the neurites” value is given as “triggers elongation of neurites”.
